Entries after “also recorded” stand apart in the source; their conditions may differ. Structures can show the parent of a compound that is named as a salt. Where two headings read alike, the source gives them in different places.
Columns and labels:
human neurons [1] = assay: Iron (FeSO4) mediated neurotoxicity screening, MAP-2 positive neurons counted; format: cell-based; settings: for viability at 10 µM: Homo sapiens, Neuron, read-out: Drug % control (mean): number of neurons normalized to untreated control
Method in brief: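 Fetal human neurons (15-20 wk), plated with cytosine arabinoside, were pre-incubated 1 h with compounds (10 mM DMSO stocks) before FeSO4 at 25-50 μM final. Cells fixed a day later; MAP-2 immunostaining plus Hoechst nuclei imaged automatically, sites per well averaged; quadruplicates.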

T-cells = assay: Proliferation of T-lymphocytes (3H-thymidine) in anti-CD3/anti-CD28 activated splenocytes; format: cell-based, mouse; settings: drug 10 μM; for inhibition at 10 µM: Mus musculus, T-cell, 72 h, read-out: mean reduction of 3H-thymidine incorporation (T-cell proliferation); for toxic effects in the T-cell proliferation test: data not shown
Description: A previously published protocol was used for isolating and activating T-cells (Keough et al., Nature Comm 7:11312, 2016). Spleens from female C57B16 mice were harvested and after mechanical dissociation the cell suspension was passed through a 70 μm cell strainer and separated by Ficoll gradient (1800 RPM, 30 min). Splenocytes were plated (2.5×10^5 cells in 100 μl/well) in anti-CD3 antibody coated 96-well plates (1,000 ng m1^−1 plate-bound anti-CD3 and 1,000 ng m1^−1 anti-CD28 suspended in media) to activate T-cells. Directly before plating, wells were treated with respective drugs in a final concentration of 10 μM. Cells were cultured in RPMI 1640 medium, supplemented with 10% FBS, 1 μM sodium pyruvate, 2 mM L-alanyl-L-glutamine, 1% penicillin/streptomycin, 1% HEPES and 0.05 mM 2-mercaptoethanol (all supplements were from Invitrogen). After 48 h, ^3H-thymidine was added in a concentration of 1 μCi per well, and cells were harvested after 24 h on filter mats. Mats were then evaluated for radioactivity (counts per minute) using a liquid scintillation counter.

human neurons [2] = assay: Mitochondrial damage to neurons induced by rotenone; format: cell-based; settings: rotenone 10 μM, drug 10 μM
Description: Human neurons were isolated from brain tissues of therapeutically aborted 15-20 week old fetuses, in accordance with ethics approval of the University of Calgary ethics committee, after written informed consent of the pregnant donors. Neurons were isolated as previously described (Vecil et al., 2000) brain specimens were washed in phosphate buffered saline (PBS) to remove blood, followed by removal of meninges. […] Thereafter, the digestion was stopped by addition of 4 ml fetal calf serum (FCS). The solution was filtered through a 132 μm filter and centrifuged (three times, 1,200 rpm, 10 min). Cells were cultured in feeding medium of minimal essential medium (MEM) supplemented with 10% fetal bovine serum (FBS), 1 μM sodium pyruvate, 10 μM glutamine, 1× non-essential amino acids, 0.1% dextrose and 1% penicillin/streptomycin (all culture supplements from Invitrogen, Burlington, Canada). […] For experiments, the neuron-enriched cultures were retrypsinized and cells were plated in poly-L-ornithine pre-coated 96-well plates at a density of 100,000 cells/well in 100 μl of the complete medium supplemented with cytosine arabinoside. […] All conditions were performed in quadruplicates. A day later cells were fixed using 4% paraformaldehyde (PFA) and stored in PBS in 4° C.
The iron stock solution was prepared using 27.8 mg iron(II) sulfate heptahydrate (FeSO4) (Sigma-Aldrich, Oakville, Canada), 10 μl of 17.8M sulfuric acid and 10 ml deionized distilled water. After filtering with a 0.2 μm filter, FeSO4 was added to cells in a final concentration of 25-50 μM in a volume of 50 μl medium to the cells. Rotenone was dissolved in dimethyl sulfoxide (DMSO) and used in a final concentration of 10 μM.

human neurons [3] = assay: Live cell imaging of propidium iodide positive neurons challenged with FeSO4; format: cell-based; settings: FeSO4 50 μM, pre-treatment 1 h
Description: Neurons were prepared as described above. Directly after the addition of FeSO4 to healthy neurons, the live cell-permeant Hoechst 33342 (1:2 diluted in AIM-V medium, nuclear blue; ThermoFisher Scientific, Grand Island, NY, USA) and the live cell-impermeable propinium iodide (PI, 1:20 diluted in AIM-V medium) were added in a volume of 20 μI (Sigma-Aldrich). In compromised cells, PI could now diffuse across the plasma membrane. Live cell imaging was performed using the automated ImageXpress® imaging system under controlled environmental conditions (37° C. and 5% CO2). Images were taken from 9 sites per well at baseline and then every 30 min for 12h. After export with MetaXpress®, videos were edited with ImageJ (NIH) in a uniform manner. Nuclei were pseudo colored in cyan, PI-positive cells in red.
Live cell imaging over 12 h supported the neuroprotective effects of drugs. We selected indapamide and desipramine for live imaging studies.

[4] = Hydroxyl radical antioxidant capacity (HORAC) assay; format: biochemical; settings: vs 12.5 μM gallic acid (=1), 60 min
Description: In this assay, hydroxyl radicals generated by a Co(II)-mediated Fenton-like reaction oxidize fluorescein causing loss of fluorescence (Ou et al., J Argricultural Food Chemistry 50:2772-2777, 2002). The presence of an anti-oxidant reduces the loss of fluorescence and this can be monitored every 5 min over a period of 60 min with a Spectra Max Gemini XS plate reader (Molecular Devices, Sunnyvale, Calif., USA) and the software SoftMax Pro version 5. For monitoring fluorescence, we used an excitation wavelength of λ=485 nm and an emission wavelength of λ=520 nm.
The biochemical cell free hydroxyl radical antioxidant capacity (HORAC) assay investigates the prevention of hydroxyl radical mediated oxidation of to fluorescein in comparison to the strong anti-oxidant gallic acid. The generation of hydroxyl radicals by a cobalt-driven Fenton-like reaction oxidizes fluorescein with progressive loss of fluorescence. The presence of an anti-oxidant reduces the loss of fluorescence over time.
We compared the area under the curve of test compounds to that elicited by gallic acid to obtain the gallic acid equivalent (GAE).

[5] = drug 10 μM 1 h before FeSO4 25 or 50 μM, MAP-2 neurons after 24 h

Compound	viability at 10 µM (human neurons [1]; [5]) [%]	inhibition at 10 µM (T-cells; vs activated splenocytes) [%]	further results
N[C@@H](C(=O)N[C@@H]1C(=O)N2C(C(=O)O)=C(Cl)CS[C@H]12)c1ccccc1 [CEFACLOR]	89.9	23	–
CN(C)CCCN1c2ccccc2Sc2ccc(Cl)cc21 [CHLORPROMAZINE]	98.8	99.4	toxic effects in the T-cell proliferation test (T-cells): toxic effects
OC(c1cc(C(F)(F)F)nc2c(C(F)(F)F)cccc12)C1CCCCN1 (stereo not shown) [MEFLOQUINE]	47	62.3	–
CC12CC3CC(C)(C1)CC(N)(C3)C2 [MEMANTINE HYDROCHLORIDE]	53.2	–	increase of T-cell proliferation (T-cells; vs activated splenocytes): 17.5%
CC(CN1c2ccccc2Sc2ccccc21)N(C)C (stereo not shown) [PROMETHAZINE HYDROCHLORIDE]	105	74.6	neurotoxicity by rotenone (mitochondrial damage) (human neurons [2]): reduced neurotoxicity
CC(CCc1ccccc1)NCC(O)c1ccc(O)c(C(N)=O)c1 (stereo not shown) [LABETALOL HYDROCHLORIDE]	54.4	26.8	neurotoxicity by rotenone (mitochondrial damage) (human neurons [2]; HYDROCHLORIDE): reduced neurotoxicity; also recorded: active against damage to the mitochondrial respiratory chain
TRIMEPRAZINE TARTRATE	–	–	Drug % control (mean): number of neurons normalized to untreated control (human neurons [1]; [5]): 73.31%; mean reduction of 3H-thymidine incorporation (T-cell proliferation) (T-cells; vs activated splenocytes): 43.3%
CNCCCN1c2ccccc2CCc2ccccc21 [DESIPRAMINE HYDROCHLORIDE]	84.4	92.2	protection from FeSO4-mediated neurotoxicity (in words) (human neurons [1]): strong protection; number of PI-positive neurons in response to FeSO4 over 12 h (human neurons [3]): significantly attenuated; mean HORAC-GAE (gallic acid equivalents) [4]: -5.00; neurotoxicity by rotenone (mitochondrial damage) (human neurons [2]): active against damage to the mitochondrial respiratory chain
CN(C)CCCN1c2ccccc2CCc2ccccc21 [IMIPRAMINE HYDROCHLORIDE]	106	66.4	–
CC(CN(C)C)CN1c2ccccc2CCc2ccccc21 (stereo not shown) [TRIMIPRAMINE MALEATE]	88.6	54	mean HORAC-GAE (gallic acid equivalents) [4]: 4.2; neurotoxicity by rotenone (mitochondrial damage) (human neurons [2]): reduced neurotoxicity
O=C1c2c(O)ccc(O)c2C(=O)c2c(NCCNCCO)ccc(NCCNCCO)c21 [MITOXANTHRONE HYDROCHLORIDE]	52.5	99.7	toxic effects in the T-cell proliferation test (T-cells): toxic effects
COc1cc(NC(C)CCCN)c2ncccc2c1 (stereo not shown) [PRIMAQUINE DIPHOSPHATE]	–	–	viability at 10 µM (human neurons [1]; 24 h): 89.1%
Cc1noc(NS(=O)(=O)c2ccc(N)cc2)c1C [SULFISOXAZOLE]	38.3	–	–
CN(Cc1cnc2nc(N)nc(N)c2n1)c1ccc(C(=O)N[C@@H](CCC(=O)O)C(=O)O)cc1 [METHOTREXATE]	43.3	–	–
NNCCc1ccccc1 [PHENELZINE SULFATE]	46.7	–	–
CN(C)[C@@H]1C(O)=C(C(N)=O)C(=O)[C@@]2(O)C(O)=C3C(=O)c4c(O)cccc4[C@@](C)(O)[C@H]3C[C@@H]12 [TETRACYCLINE HYDROCHLORIDE]	25	–	–
CCCc1cc(=O)[nH]c(=S)[nH]1 [PROPYLTHIOURACIL]	35.9	–	–

Compound	viability at 10 µM (human neurons [1]; [5]) [%]	inhibition at 10 µM (T-cells; vs activated splenocytes) [%]	further results
Cc1ccc(S(=O)(=O)NC(=O)NN2CC3CCCC3C2)cc1 (stereo not shown) [GLICLAZIDE]	47.3	–	–
N[C@@H](Cc1ccc(O)c(O)c1)C(=O)O [LEVODOPA]	81.2	–	–
CN1CCN(CCCN2c3ccccc3Sc3ccc(Cl)cc32)CC1 [PROCHLORPERAZINE EDISYLATE]	4.88	–	–
Cc1ccccc1C(OCCN(C)C)c1ccccc1 (stereo not shown) [ORPHENADRINE CITRATE]	54.5	–	–
CC(C)NCC(O)COc1cccc2ccccc12.Cl (racemic) [PROPRANOLOL HYDROCHLORIDE (+/−)]	–	–	Drug % control (mean): number of neurons normalized to untreated control (human neurons [1]; [5]): 66.49%
OCCN1CCN(CCCN2c3ccccc3Sc3ccc(Cl)cc32)CC1 [PERPHENAZINE]	78.8	–	–
O=C(CCCN1CCC(O)(c2ccc(Cl)cc2)CC1)c1ccc(F)cc1 [HALOPERIDOL]	6.12	–	–
OCCN(CCO)c1nc(N2CCCCC2)c2nc(N(CCO)CCO)nc(N3CCCCC3)c2n1 [DIPYRIDAMOLE]	165	89.3	–
CCCCc1oc2ccccc2c1C(=O)c1cc(I)c(OCCN(CC)CC)c(I)c1 [AMIODARONE HYDROCHLORIDE]	71.3	–	–
C[C@H]1COc2c(N3CCN(C)CC3)c(F)cc3c(=O)c(C(=O)O)cn1c23 [LEVOFLOXACIN]	56.4	–	–
Cc1cc(=O)n(-c2ccccc2)n1C [ANTIPYRINE]	2.11	–	–
CCOC(=O)[C@H](CCc1ccccc1)N[C@@H](C)C(=O)N1Cc2ccccc2C[C@H]1C(=O)O [QUINAPRIL HYDROCHLORIDE]	41.5	–	–
C[C@H](CCC(=O)O)[C@H]1CC[C@H]2[C@@H]3[C@@H](O)C[C@@H]4C[C@H](O)CC[C@]4(C)[C@H]3CC[C@]12C [URSODIOL]	24.6	–	–
N#Cc1ccc2c(c1)N(CCCN1CCC(O)CC1)c1ccccc1S2 [PERICIAZINE]	82	28	protection from FeSO4-mediated neurotoxicity (in words) (human neurons [1]; drug 10 μM, human neurons): strong protection; neurotoxicity by rotenone (mitochondrial damage) (human neurons [2]): reduced neurotoxicity
OC(CCN1CCCC1)(c1ccccc1)C1CCCCC1 (stereo not shown) [PROCYCLIDINE HYDROCHLORIDE]	95.6	–	–
CCOC(=O)[C@H](CCc1ccccc1)N[C@@H](C)C(=O)N1[C@H](C(=O)O)C[C@H]2CCCC[C@@H]21 [TRANDOLAPRIL]	72.3	–	–
